Test results from patent US9994509B2, “Inhibitors of viral replication, their process of preparation and their therapeutical uses” (HIVIH, priority 2013, dated 2018).

What follows are molecules tested on NL4-3 strain of HIV-1 (assay: HIV-1 replication assay: cyto-protection of MT4 cells infected with NL4-3 virus, CellTiter-Glo viability readout). Conditions: Human immunodeficiency virus 1, NL43, 120 h; concentration leading to 50% of cyto-protection; MT4 cells infected with NL4-3 virus; 5 days incubation; CellTiter-Glo; read-out: EC50.
Type: cell-based
Protocol: The antiviral activity, particularly against HIV, of compounds according to the invention is evaluated by the protocol described below.
Preparation of Virus stock of the NL4-3 strain of HIV-1 (Adachi et al, J Virol, 1986, 59(2):284-91).
The virus was prepared as described in Lopez et al (Lopez et al, Proc Natl Acad Sci USA., 2006, 103(40):14947-52, by transfecting 2×10^6 293 T cells (CRL-1573, ATCC) with following modifications: 6 μg of NL4-3 proviral DNA molecular clone were mixed with X-tremeGENE 9 DNA transfection reagent from Roche, and used according to manufacturer's instructions. Twenty four hours later, cells were washed and fresh medium added. Forty eight hours after transfection, cell supernatants were harvested, filtered through 0.45-μm-pore-size filters, quantified for HIV-1 p24 antigen by using an Innotest HIV antigen mAb assay (Ingen) according to manufacturer's instructions, and used in infection experiments.
Serial dilutions of compounds to be tested were prepared in complete RPMI medium from 10 mM DMSO stock solutions, and distributed in a volume of 20 μl in 96 well tissue-culture treated plates (Costar 3917), in order to get 0.5% DMSO final concentration in each well, after the addition of infected cells. Control wells contained also 0.5% DMSO final concentration but no compound.
MT4 cells (from the NIH AIDS Research and Reference Reagent Program) in RPMI complete medium were counted (10×10^6 cells per well in Falcon 353047 Multiwell™ 24 well) and infected for 2 hours at 37°, at a multiplicity of infection (moi) of 0.0001-0.00001. Cells were then centrifuged for 3 min at 3000 rpm, and washed two times in 1 ml PBS to remove viruses that have not entered the cells. Infected cells were resuspended in complete RPMI at 1.25×10^6 cells/ml, and 80 μl of infected cells were distributed in each well containing compounds to be tested or control wells. The plates were then incubated at 37° C. for 5 days.
Assay used to measure the inhibition of HIV replication by the compounds (according to Gregg S. Jones et al., Antimicrobial Agents and Chemotherapy, 2009, 53 (3): 1194-1203).
After 5 days of incubation, microplates were equilibrated to room temperature for 30 min and then 50 μl of CellTiter-Glo reagent (Promega Biosciences, Inc., Madison Wis., USA) were added to each well. Cell lysis was carried out at room temperature during 10 min and luminescence was read on a Fluoroskan (Thermo Scientific).
The EC50, or effective concentration 50, is the concentration of compound leading to 50% of cyto-protection in a CellTiter-Glo® viability assay based on MT4 cells infected with NL4-3 virus (table 1).
In the case of `CCc1cc(C2CC2)c(-c2ccc3c(c2)CCCO3)c(C(OC2CC2)C(=O)O)c1C` (stereo not shown) [Example 57, 2-(2-chroman-6-yl-3-cyclopropyl-5-ethyl-6-methyl-phenyl)-2-(cyclopropoxy)acetic acid], the EC50 is reported as 580 nM. Molecule `CC(C)(C)OC(C(=O)O)c1c(C(F)(F)F)ccc(OCc2ccccc2)c1-c1ccc2c(c1)CCCO2` (stereo not shown) [Example 63, 2-[3-(benzyloxy)-2-(3,4-dihydro-2H-1-benzopyran-6-yl)-6-(trifluoromethyl)phenyl]-2-(tert-butoxy)acetic acid, reference compound] has an EC50 of 3200 nM. With `CC(C)c1ccc(C(F)(F)F)c(C(OC(C)(C)C)C(=O)O)c1-c1ccc2c(c1)CCCO2` (stereo not shown) [Example 10, 2-(tert-butoxy)-2-[2-(3,4-dihydro-2H-1-benzopyran-6-yl)-3-(propan-2-yl)-6-(trifluoromethyl)phenyl]acetic acid] the EC50 was 84 nM. Molecule `Cc1ccc(C2CC2)c(-c2ccc3c(c2)CCCO3)c1C(CC(C)C)C(=O)O` (stereo not shown) [Example 46, 2-[3-cyclopropyl-2-(3,4-dihydro-2H-1-benzopyran-6-yl)-6-methylphenyl]-4-methylpentanoic acid] has an EC50 of 650 nM. `CCCc1ccc(C)c(C(OC(C)C)C(=O)O)c1-c1ccc2c(c1)CCCO2` (stereo not shown) [Example 31] showed an EC50 of 1000 nM. `Cc1ccc(C2CC2)c(C2=CCC(C)(C)CC2)c1C(OC(C)(C)C)C(=O)O` (stereo not shown) [Example 18, 2-(tert-butoxy)-2-[3-cyclopropyl-2-(4,4-dimethyl-cyclohex-1-enyl)-6-methyl-phenyl]acetic acid] showed an EC50 of 19 nM. `Cc1ccc(C2C[C@H]2C2CC2)c(-c2ccc3c(c2)CCCO3)c1C(OC(C)(C)C)C(=O)O` (stereo partly drawn) [Example 17, (trans-3-bicyclopropyl-2-yl-2-chroman-6-yl-6-methyl-phenyl)-tert-butoxy-acetic acid] gave an EC50 of 330 nM. With `Cc1ccc(-c2c(C3CC3)ccc(C)c2C(OC(C)(C)C)C(=O)O)cc1` (stereo not shown) [Example 14, 2-(tert-butoxy)-2-(6-cyclopropyl-3,4′-dimethyl-biphenyl-2-yl)-acetic acid] the EC50 was 51 nM. For `Cc1ccc(C2CC2)c(-c2ccc(F)cc2)c1C(OC(C)(C)C)C(=O)O` (stereo not shown) [Example 15, 2-(tert-butoxy)-2-(6-cyclopropyl-4′-fluoro-3-methyl-biphenyl-2-yl)-acetic acid], the EC50 was 340 nM. Molecule `Cc1ccc(C2CC2)c(-c2ccc3c(c2)CCCO3)c1C(OCC(F)(F)F)C(=O)O` (stereo not shown) [Example 30, (2-chroman-6-yl-3-cyclopropyl-6-methyl-phenyl)-(2,2,2-trifluoro-ethoxy)-acetic acid] has an EC50 of 860 nM. Work on `Cc1ccc(C2CC2)c(-c2ccc3c(c2C)CCCO3)c1[C@H](OC(C)(C)C)C(=O)O` (atropisomer, axis not shown) [Example 38, (S)-tert-butoxy-[3-cyclopropyl-6-methyl-2-(5-methyl-chroman-6-yl)-phenyl]-acetic acid] yielded an EC50 of 3 nM. `Cc1ccc(C2CC2)c(-c2ccc3c(c2)CCCO3)c1C(OC(C)(C)C)C(=O)O` (stereo not shown) [Example 1, 2-(tert-butoxy)-2-[3-cyclopropyl-2-(3,4-dihydro-2H-1-benzopyran-6-yl)-6-methylphenyl]acetic acid] gave an EC50 of 17 nM. For `Cc1ccc(C2CC2)c(-c2ccc(Cl)cc2)c1C(OC(C)(C)C)C(=O)O` (stereo not shown) [Example 20, 2-(tert-butoxy)-2-(4′-chloro-6-cyclopropyl-3-methyl-biphenyl-2-yl)acetic acid], the EC50 was 54 nM. Molecule `Cc1ccc(C2CC2)c(-c2ccc3c(c2C)CCCO3)c1C(OC1CC1)C(=O)O` (stereo not shown) [Example 32, cyclopropoxy-[3-cyclopropyl-6-methyl-2-(5-methyl-chroman-6-yl)-phenyl]-acetic acid] has an EC50 of 32 nM. `Cc1ccc(C2CC2)c(-c2ccc3c(c2C)CCCO3)c1C(OC(C)(C)C)C(=O)O` (stereo not shown) [Example 16, 2-(tert-butoxy)-2-[3-cyclopropyl-6-methyl-2-(5-methyl-chroman-6-yl)-phenyl]acetic acid] was tested, and the EC50 was 9 nM. Work on `Cc1ccc(C2CC2)c(-c2ccc3c(c2)CCCO3)c1C(OCCF)C(=O)O` (stereo not shown) [Example 35, (2-chroman-6-yl-3-cyclopropyl-6-methyl-phenyl)-(2-fluoro-ethoxy)-acetic acid] yielded an EC50 of 830 nM. Work on `Cc1ccc(C)c(C(OC(C)(C)C)C(=O)O)c1-c1ccc2c(c1)CCCO2` (stereo not shown) [Example 62, 2-(tert-butoxy)-2-[2-(3,4-dihydro-2H-1-benzopyran-6-yl)-3,6-dimethylphenyl]acetic acid, reference compound] yielded an EC50 of 1600 nM. `C=Cc1ccc(C(F)(F)F)c(C(OC(C)(C)C)C(=O)O)c1-c1ccc2c(c1)CCCO2` (stereo not shown) [Example 9, 2-(tert-butoxy)-2-[2-(3,4-dihydro-2H-1-benzopyran-6-yl)-3-ethenyl-6-(trifluoromethyl)phenyl]acetic acid] was tested, and the EC50 was 500 nM. Work on `CCc1ccc(C(F)(F)F)c(C(OC(C)(C)C)C(=O)O)c1-c1ccc2c(c1)CCCO2` (stereo not shown) [Example 11, 2-(tert-butoxy)-2-[2-(3,4-dihydro-2H-1-benzopyran-6-yl)-3-ethyl-6-(trifluoromethyl)phenyl]acetic acid] yielded an EC50 of 360 nM.
